Data published in patent publication US20110098492A1, “CLEANING COMPOSITIONS CONTAINING MID-RANGE ALKOXYLATES” (priority 2008, published 2011).

Key:
[1] = Surface tension and critical micelle concentration (Wilhelmy plate); format: physicochemical
Description: B) Surface Tension and Critical Micelle Concentration (CMC) Measurement. For this test the surface tension of a surfactant-water solution is measured while incrementally adding the surfactant to de-ionized water. Results are measured in terms of dyne/centimeters using a Wilhelmy plate. Results are recorded versus surfactant concentration. The Critical Micelle Concentration is the point at which an increase in surfactant concentration no longer results in a change in surface tension.

[2] = Pour point test (ASTM D97); format: physicochemical
Description: C) Pour Point Test: This test is carried out according to the protocol of ASTM Test D97.

[3] = Gel range in water at 23 C; format: physicochemical; design: key: L = Liquid; G = Gel; TL = Thick Liquid
Description: One way the industry expresses a tendency of a surfactant to cause gels is a “gel range.” A typical gel range describes a percentage of samples that form gels, out of a number of samples, each having increasing surfactant concentration. […] A sample forms a gel when it is non-pourable for at least five seconds at 23° centigrade (° C.) when its container is inverted 180° so the container's open spout or mouth faces down. For many applications, a surfactant ideally has no gel range.
D) Gel range: Ten surfactant solutions are made using 0%, 10%, 20%, 30%, 40%, 50%, 60%, 70%, 80%, 90% water. […] The test is run at 23 C.

[4] = Cleaning of cross-linked petroleum grease (1-octadecene soil); settings: for Arbitrary Gray Value: 1% by weight in water, cross-linked 1-octadecene soil
Description: The same procedure used above for cross-linked triglycerides was used, except that 1-octadecene was used instead of Canola Oil.

[5] = Ross-Miles foam height test (ASTM D1173); format: physicochemical; settings: for Ross Miles Foam Height, millimeters, Initial: Initial (0 sec)
Description: A) Ross-Miles Foam Height Test: This test is carried out according to the protocol of ASTM […].

[6] = Cleaning of cross-linked triglycerides (Gardner scrubber, soiled vinyl tile); design: key to Arbitrary Gray Value: mean gray value of tile image (ImageJ); settings: 120 back-and-forth strokes, higher = better cleaning
Description: Test panels coated with mixtures of triglycerides and cross-linked triglycerides were prepared and evaluated using the following procedure. Cobalt Naphthenate was used as a catalyst to accelerate the oxidation of vegetable oil to give a hard varnish. Carbon black is added to the varnish to enable easy visual comparison of the ability to clean the cross-linked triglyceride from the surface.
Substrate Panels: White Vinyl Floor Tile: Tarket Corporation Azrock™ VS304-3 (6913) cut to 4¼×4¼ inch (to fit the Gardner Linear Motion Scrubber).
Soil Formulation: 100 grams Canola Oil (Food Grade, 100%, Kroger Co. Cincinnati, Ohio 45202); 2 grams Acetylene Carbon Black (Cat #39724, Alfa Aesar; Surface area=74 sq m/g); 20 grams drying agent: Cobalt Naphthenate Solution (Aldrich Cat #54,457-4, CAS #61789-51-3) (Comes as a 6% solution in petroleum solvent); Oven: Convection oven set at 160° F.
Scrubbing Tester: Gardco washability & Wear Tester; Linear Motion Test Equipment; Model D12-V Cat #WA-2164 (Paul N. Gardner Company, Inc. 316 N.E. First Street, Pompano, Beach, Fla. 33060.
Sponges: “Do-It” Cellulose Sponge, 1⅝ in thick, cut to 3″×4″. Manufactured by Bloch/New England for HWI, Fort Wayne, Ind. 46801;
Paint Brushes: Economy Chip Brush 1 Inch. www.lgsourcing.com Model #0106; Item #103407 obtained from Lowes, Inc. L. G. Sourcing, Inc. P.O. Box 1535 North Wilkseboro, N.C. 28659
Reflectance Meter: HunterLab ColorQuest XE
Prepare a stock solution by mixing 98 grams of canola oil (food grade) with 2.0 g acetylene-based carbon black (Cat #39724, Alfa Aesar; Surface area=74 sq m/g). Mix with a disperser at 2000 rpm for 15 min. (We used a Caframo Model BDC 3030 with a 0.50 dispersing blade).
Add 20.0 grams Cobalt Naphthenate Solution and mix well (by hand, using a glass stir rod).
Place 1.6 grams soil per 4×4 inch tile.
Paint to a thin film using a clean 1-inch economy brush. Use several strokes to get to an even coating. Use a clean, dry brush for each application. (After the application, each brush can be cleaned with acetone, dried, and then re-used).
Place in a convection oven set at 160 F for 16 hours. We place the panels in an oven at 4:00 p.m, and then remove the panels at 8:00 a.m. the next morning. Let the panels cool for 1 hour.
Use the panels within 10 days
Place a panel in the Gardner Scrubber
[…] (We use 5.0 grams surfactant diluted to 500 mL water).
Prepare a sponge by rinsing several times in cold tap water. Completely squeeze out the sponge by hand.
After each test, rinse out the sponge 15-20 times (by repeated sorption and squeezing) until there is no noticeable surfactant solution left (usually indicated by a lack of foam).
Pour 500 mL of surfactant solution into a beaker
Place the sponge into the beaker—allowing it to soak up as much surfactant as possible.
Place the sponge into the Gardner Scrubber.
Pour the remaining liquid (approx 400 mL) over the test panel in the scrubber. There should be enough liquid to just cover the test panel.
Program the scrubber to perform 120 back-and-forth strokes (for a total of 240 linear strokes). We define each back-and-forth stroke as “1 stroke”
Remove the panel rinse with tap water
Clean the Gardner scrubber by rinsing with tap water.
Clean the sponge by squeezing it out under tap water 20-30 times until clean.
Remove excess water from the sponge by squeezing as much liquid out as possible.
After the panel is dry, either take pictures (for visual comparison of cleaning) or measure the reflectance using the Xyy mode of a Hunter Colorimeter. Alternatively, the mean gray value can be obtained by taking a picture of the tiles and processing computer image with ImageJ™ software, which is distributed freely by the National Institute of Health (nih.gov).

[7] = Formula stability with LAS, sodium citrate and water; format: physicochemical; design: key to Formula stability: S = Stable; U = Unstable
Description: When mixed with dodecyl benzene sulfonic acid (sodium salt), and sodium citrate in water, the surfactants of the present invention show enhanced formula stability relative to conventional surfactants.

[8] = background statement on commercial surfactants; cited from earlier work

| Substance | Pour Point [2] [° F.] | Gel Range, Percent Surfactant in Water at 23 C. ([3]; 10% surfactant in water) | Gel Range, Percent Surfactant in Water at 23 C. ([3]; 20% surfactant in water) | Gel Range, Percent Surfactant in Water at 23 C. ([3]; 30% surfactant in water) | Gel Range, Percent Surfactant in Water at 23 C. ([3]; 40% surfactant in water) | Gel Range, Percent Surfactant in Water at 23 C. ([3]; 50% surfactant in water) | Gel Range, Percent Surfactant in Water at 23 C. ([3]; 60% surfactant in water) | Gel Range, Percent Surfactant in Water at 23 C. ([3]; 70% surfactant in water) | Gel Range, Percent Surfactant in Water at 23 C. ([3]; 80% surfactant in water) | Gel Range, Percent Surfactant in Water at 23 C. ([3]; 90% surfactant in water) | Arbitrary Gray Value [4] | Ross Miles Foam Height, millimeters, 5 Minutes [5] [millimeters] | Ross Miles Foam Height, millimeters, Initial [5] [millimeters] | also measured |
| --- | --- | --- | --- | --- | --- | --- | --- | --- | --- | --- | --- | --- | --- | --- |
| 2EH(PO)5.5(EO)8 [Example 3] | 44 | L | L | L | L | L | L | L | TL | L | 136 | 0 | 45 | Surface Tension ([1]; 0.1 wt % in water): 31 dyne/centimeters; Critical Micelle Concentration ([1]; in de-ionized water): 1750 ppm; cleaning of cross-linked 1-octadecene / mineral oil (in words) ([4]; compared with Tergitol NP-9): equivalent to Tergitol NP-9 |
| nonylphenoxy (polyoxyethylene-9) [NP-9, reference compound] | 30 | L | L | L | L | L | G | G | G | L | 95 | 35 | 145 | Arbitrary Gray Value ([6]; 0.5% by weight in water): 108; Arbitrary Gray Value ([6]; 1% by weight in water): 177; Formula stability ([7]; 15% LAS/0% Na Cit in water): U; Formula stability ([7]; 15% LAS/1% Na Cit in water): U; Formula stability ([7]; 15% LAS/2% Na Cit in water): U; Formula stability ([7]; 15% LAS/4% Na Cit in water): U; gel formation / gel range when mixed with water (in words) [8]: forms resilient, slow-dissolving gels |
